Experimental data reported in patent US7365231B2, “Compound with antitumor activity and preparation method therefor” (National Taiwan University of Science & Technology, priority 2005, dated 2008).

How the values were obtained:
[1] = xenograft study; cited from earlier work
[2] = system: human colon cancer cells xenografts; conditions: cited from earlier work
colon cancer cell lines = conditions: NCI Anticancer Drug Screen; cited from earlier work
human colon cancer cells = conditions: cited from earlier work
[3] = system: human gastric (SC-M1) cancer; conditions: SC-M1 in SCID mice; cited from earlier work
colon (Colo 205) cancer = conditions: Colo 205 in SCID mice; cited from earlier work

## 1,6-bis(4-(4-amino-3-hydroxyphenoxy)phenyl)diamantane [DPD]
[1]
  acute toxicity: no obvious acute toxicity
[2]
  in vivo anticancer activity: has in vivo anticancer activity
Colon cancer cell lines
  anticancer activity on colon cancer cell lines: marked anticancer activities
Human colon cancer cells
  cell cycle arrest and differentiation: induced G0/G1 arrest and differentiation

## O=C1C=CC(=O)N1C12CC3CC(CC(C3)C1)C2 [AMI, N-1-adamantylmaleimide]
[3]
  apoptosis and tumor growth: induce apoptosis and inhibit the growth

## Nc1ccc(Oc2ccc(Oc3ccc(N)c(O)c3)cc2)cc1O [Example 8, 1,4-Bis(4-amino-3-hydroxyphenoxy)benzene]
other
  melting point: > 220 °C (dec.)

## Nc1ccc(Oc2ccccc2Oc2ccc(N)c(O)c2)cc1O [Example 10, 1,2-Bis(4-amino-3-hydroxyphenoxy)benzene]
other
  melting point: > 180 °C (dec.)

## dimethyladamantylmaleimide [DMAMI]
Colon (Colo 205) cancer
  apoptosis and tumor growth: induce apoptosis and inhibit the growth
